Going from `CC1CCC2C(C)C(OC(=O)Oc3ccccc3)OC3OC4(C)CCC1C32OO4` (centres undefined) to `CC1CCC2C(C)C(OC(=O)C=Cc3ccccc3)OC3OC4(C)CCC1C32OO4` (centres undefined), the logP rises from 3.38 to 3.83.

Going from `CCCOC(=O)OC1OC2OC3(C)CCC4C(C)CCC(C1C)C24OO3` (centres undefined) to `CCOC(=O)OC1OC2OC3(C)CCC4C(C)CCC(C1C)C24OO3` (centres undefined), the logP falls from 3.11 to 2.37.

First: CO[C@@H]1O[C@@H]2O[C@@]3(C)CC[C@H]4[C@H](C)CC[C@@H]([C@H]1C)[C@@]24OO3 (relative stereo)
Second: CCO[C@H]1O[C@@H]2O[C@@]3(C)CC[C@H]4[C@H](C)CC[C@@H]([C@H]1C)[C@@]24OO3
The logP of the first is lower: 2.86 for the first, 3.29 for the second.

First: CCCC(=O)OC1OC2OC3(C)CCC4C(C)CCC(C1C)C24OO3 (centres undefined)
Second: CCC(=O)OC1OC2OC3(C)CCC4C(C)CCC(C1C)C24OO3 (centres undefined)
The logP of the first is higher: 2.99 for the first, 2.33 for the second.

`COCCOCCOC1OC2OC3(C)CCC4C(C)CCC(C1C)C24OO3` (centres undefined) and `CCCOC1OC2OC3(C)CCC4C(C)CCC(C1C)C24OO3` (centres undefined) are within 0.2 log units of each other in logP: 3.51 for the first, 3.65 for the second.

First: CC(C)CCOC1OC2OC3(C)CCC4C(C)CCC(C1C)C24OO3 (centres undefined)
Second: CC(C)OC1OC2OC3(C)CCC4C(C)CCC(C1C)C24OO3 (centres undefined)
The logP of the first is higher: 4.07 for the first, 3.49 for the second.

Going from `CC(=O)OC1OC2OC3(C)CCC4C(C)CCC(C1C)C24OO3` (centres undefined) to `CC1CCC2C(C)C(OCc3ccccc3)OC3OC4(C)CCC1C32OO4` (centres undefined), the logP rises from 2.08 to 4.2.
